Data as given in ChEMBL document CHEMBL1201862, “PubChem BioAssay data set” (2004).
The source made the active and inactive calls.

Assays:
[1] = biological target: Luciferin 4-monooxygenase (Photinus pyralis, UniProt P08659); test: inhibition of purified Photinus pyralis luciferase – biochemical, luminescence, dose response (AID 1891)
[2] = Luminescence Cell-Based Dose Confirmation HTS to Identify Inhibitors of Platelet Dense Granule Release. [Related pubchem assays: 1663 (Primary HTS), 1678 (Summary of Project)]; format: functional
[3] = biological target: Cytochrome P450 2D6 (Homo sapiens, UniProt P10635);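 note: CYP2D6 member of a cytochrome P450 panel assay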
Sequence of Cytochrome P450 2D6 (P10635 whole entry): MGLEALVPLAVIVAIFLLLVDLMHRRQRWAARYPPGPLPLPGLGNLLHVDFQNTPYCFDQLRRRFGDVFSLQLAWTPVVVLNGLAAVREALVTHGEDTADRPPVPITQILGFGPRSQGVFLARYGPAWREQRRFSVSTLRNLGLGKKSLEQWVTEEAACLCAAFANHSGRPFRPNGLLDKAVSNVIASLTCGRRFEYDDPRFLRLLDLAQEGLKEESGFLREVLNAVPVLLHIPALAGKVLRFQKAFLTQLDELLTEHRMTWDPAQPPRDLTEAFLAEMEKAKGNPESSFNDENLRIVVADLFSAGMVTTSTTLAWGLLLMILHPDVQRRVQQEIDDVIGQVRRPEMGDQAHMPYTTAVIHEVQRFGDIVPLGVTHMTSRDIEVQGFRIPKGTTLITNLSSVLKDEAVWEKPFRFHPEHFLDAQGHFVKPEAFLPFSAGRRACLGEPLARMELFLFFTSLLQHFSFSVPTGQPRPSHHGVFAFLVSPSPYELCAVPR

[4] = biological target: T1, Cytochrome P450 1A2 (Homo sapiens, UniProt P05177);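 note: PubChem cytochrome P450 panel assay, CYP1A2 panel member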
T1 sequence (P05177 whole entry): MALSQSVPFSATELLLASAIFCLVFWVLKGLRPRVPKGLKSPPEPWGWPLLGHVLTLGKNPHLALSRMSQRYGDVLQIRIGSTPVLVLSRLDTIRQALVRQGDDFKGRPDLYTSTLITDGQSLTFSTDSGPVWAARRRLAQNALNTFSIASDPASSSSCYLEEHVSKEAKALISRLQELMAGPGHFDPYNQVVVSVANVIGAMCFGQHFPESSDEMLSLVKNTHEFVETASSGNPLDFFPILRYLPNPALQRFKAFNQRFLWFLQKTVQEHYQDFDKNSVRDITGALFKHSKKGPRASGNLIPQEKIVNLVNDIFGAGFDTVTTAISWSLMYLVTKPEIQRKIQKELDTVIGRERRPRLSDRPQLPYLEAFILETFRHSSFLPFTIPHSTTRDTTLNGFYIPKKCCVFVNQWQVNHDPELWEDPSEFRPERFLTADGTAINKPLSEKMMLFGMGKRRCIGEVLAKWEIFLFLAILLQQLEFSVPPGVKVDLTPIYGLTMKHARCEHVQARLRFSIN

[5] = cells; format: functional
[6] = biological target: Cytochrome P450 3A4 (Homo sapiens, UniProt P08684);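 note: CYP3A4 tested as one member of a cytochrome P450 panel screen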
Sequence of Cytochrome P450 3A4 (P08684 whole entry): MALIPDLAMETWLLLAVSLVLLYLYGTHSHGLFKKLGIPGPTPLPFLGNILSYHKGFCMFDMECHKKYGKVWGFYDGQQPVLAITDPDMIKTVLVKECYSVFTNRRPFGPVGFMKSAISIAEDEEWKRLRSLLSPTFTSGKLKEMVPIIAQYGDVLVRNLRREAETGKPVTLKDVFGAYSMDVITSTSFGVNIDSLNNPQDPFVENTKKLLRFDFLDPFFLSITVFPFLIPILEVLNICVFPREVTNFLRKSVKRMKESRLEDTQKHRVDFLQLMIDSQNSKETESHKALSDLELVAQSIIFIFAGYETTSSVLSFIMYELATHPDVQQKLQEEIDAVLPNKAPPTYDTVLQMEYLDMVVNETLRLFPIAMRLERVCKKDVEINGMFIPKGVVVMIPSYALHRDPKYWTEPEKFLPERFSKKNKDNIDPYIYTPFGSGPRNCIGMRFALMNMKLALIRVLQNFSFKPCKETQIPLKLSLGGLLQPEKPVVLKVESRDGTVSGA

[7] = biological target: T2, Streptokinase A (Streptococcus pyogenes serotype M1, UniProt P10520); test: viability-normalized secreted streptokinase activity reduction – plasminogen activation absorbance, OD405, dose response (AID 1914); format: functional, Streptococcus pyogenes M1 GAS;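 note: secreted streptokinase activity via plasminogen activation per viability signal from cell pellet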
T2 sequence (P10520 whole entry): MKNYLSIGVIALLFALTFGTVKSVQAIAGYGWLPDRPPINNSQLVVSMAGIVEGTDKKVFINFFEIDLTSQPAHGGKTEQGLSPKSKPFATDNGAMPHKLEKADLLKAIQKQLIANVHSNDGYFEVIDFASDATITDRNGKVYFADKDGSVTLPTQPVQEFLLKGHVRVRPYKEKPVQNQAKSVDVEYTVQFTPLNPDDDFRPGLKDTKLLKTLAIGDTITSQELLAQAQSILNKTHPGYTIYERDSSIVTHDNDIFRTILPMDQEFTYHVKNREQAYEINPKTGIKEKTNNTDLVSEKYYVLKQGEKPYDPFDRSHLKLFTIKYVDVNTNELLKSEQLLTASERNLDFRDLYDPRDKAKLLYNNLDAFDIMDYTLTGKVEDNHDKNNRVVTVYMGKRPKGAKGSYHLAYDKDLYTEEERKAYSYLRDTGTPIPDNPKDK

[8] = biological target: T3, Calpain-2 catalytic subunit (Sus scrofa, UniProt P43367); test: m-calpain protease blockers, concentration series – biochemical, fluorogenic peptide substrate, dose response (AID 1420); format: functional
T3 sequence (P43367 whole entry): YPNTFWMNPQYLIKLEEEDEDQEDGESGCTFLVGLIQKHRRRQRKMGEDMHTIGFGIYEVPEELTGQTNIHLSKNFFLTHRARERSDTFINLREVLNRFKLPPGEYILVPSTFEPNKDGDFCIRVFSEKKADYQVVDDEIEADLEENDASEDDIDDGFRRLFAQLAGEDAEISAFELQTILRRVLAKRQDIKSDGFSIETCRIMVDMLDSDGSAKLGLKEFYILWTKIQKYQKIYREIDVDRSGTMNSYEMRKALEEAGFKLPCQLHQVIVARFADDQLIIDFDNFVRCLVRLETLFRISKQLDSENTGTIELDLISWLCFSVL

[9] = biological target: T4, Corticotropin-releasing factor receptor 2/Corticotropin-releasing factor-binding protein (Homo sapiens, UniProt P24387+Q13324); test: activators of CRF receptor 2 with binding protein – uHTS hits, confirmation (AID 602473); format: functional; details: read-out: EC50_Mean
T4 sequence (Q13324 whole entry): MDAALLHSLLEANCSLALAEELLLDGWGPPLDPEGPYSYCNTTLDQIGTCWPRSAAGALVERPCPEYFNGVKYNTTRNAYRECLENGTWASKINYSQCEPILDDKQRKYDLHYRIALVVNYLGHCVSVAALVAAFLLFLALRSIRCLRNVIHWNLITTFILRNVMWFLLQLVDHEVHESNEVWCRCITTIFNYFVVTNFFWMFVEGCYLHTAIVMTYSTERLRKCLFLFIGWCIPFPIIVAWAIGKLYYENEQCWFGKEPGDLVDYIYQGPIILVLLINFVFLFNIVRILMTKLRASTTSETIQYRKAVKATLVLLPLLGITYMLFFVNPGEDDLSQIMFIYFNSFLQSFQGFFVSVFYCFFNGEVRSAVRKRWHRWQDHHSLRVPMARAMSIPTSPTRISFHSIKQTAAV
T4 sequence (P24387 whole entry): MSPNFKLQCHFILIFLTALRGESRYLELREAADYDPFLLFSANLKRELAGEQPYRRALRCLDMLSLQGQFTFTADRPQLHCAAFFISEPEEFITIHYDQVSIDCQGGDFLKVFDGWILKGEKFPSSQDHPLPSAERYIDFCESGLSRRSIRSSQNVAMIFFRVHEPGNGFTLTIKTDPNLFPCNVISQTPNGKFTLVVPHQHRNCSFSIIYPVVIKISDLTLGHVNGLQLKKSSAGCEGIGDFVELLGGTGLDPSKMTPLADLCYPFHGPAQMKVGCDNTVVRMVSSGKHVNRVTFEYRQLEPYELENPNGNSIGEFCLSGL

[10] = test system: Streptococcus sp. 'group A'; test: Streptococcus pyogenes SK(-)GAS viability under kanamycin – luminescence, BacTiterGlo, confirmation, counter-screen for streptokinase expression inhibitor project, dose response (AID 1900); format: functional, organism-based
[11] = test system: Streptococcus; test: GAS UMAA2166 growth inhibition – luminescence, BacTiterGlo, counter-screen for streptokinase expression inhibitor project, dose response (AID 1915); format: functional, organism-based;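 note: potency for reduction of bacterial viability or growth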
[12] = non-specific 3'UTR reporter inhibition in Clone20-Shn3RL – cell-based, Renilla luciferase, cherry-picked, counter-screen for Shn3 inhibitor project, dose response (AID 624133); format: functional
[13] = reduction of Shn3 3'UTR-driven luciferase in osteoblasts – cell-based, Clone20 osteoblasts, firefly luciferase, cherry-picked, dose response (AID 624132); format: functional;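 note: firefly luciferase luminescence from reporter carrying the Shn3 3'UTR in osteoblasts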
[14] = viability of HCT116 lacking mutant beta-catenin – cell-based, human colon tumor, dose response (AID 1045); format: functional;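 note: HCT116 colon tumor cells with beta catenin knocked out; cells exposed to compound for 60 hours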
[15] = viability of PTEN-deleted HCT116 cells – cell-based, HCT116 PTEN knockout, dose response (AID 1047); format: functional;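 note: HCT116 colon tumor cells with PTEN knocked out; cells exposed to compound for 60 hours before readout; potency for loss of cell viability measured by luminescence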
[16] = biological target: Cytochrome P450 2C9 (Homo sapiens, UniProt P11712)
Sequence of Cytochrome P450 2C9 (P11712 whole entry): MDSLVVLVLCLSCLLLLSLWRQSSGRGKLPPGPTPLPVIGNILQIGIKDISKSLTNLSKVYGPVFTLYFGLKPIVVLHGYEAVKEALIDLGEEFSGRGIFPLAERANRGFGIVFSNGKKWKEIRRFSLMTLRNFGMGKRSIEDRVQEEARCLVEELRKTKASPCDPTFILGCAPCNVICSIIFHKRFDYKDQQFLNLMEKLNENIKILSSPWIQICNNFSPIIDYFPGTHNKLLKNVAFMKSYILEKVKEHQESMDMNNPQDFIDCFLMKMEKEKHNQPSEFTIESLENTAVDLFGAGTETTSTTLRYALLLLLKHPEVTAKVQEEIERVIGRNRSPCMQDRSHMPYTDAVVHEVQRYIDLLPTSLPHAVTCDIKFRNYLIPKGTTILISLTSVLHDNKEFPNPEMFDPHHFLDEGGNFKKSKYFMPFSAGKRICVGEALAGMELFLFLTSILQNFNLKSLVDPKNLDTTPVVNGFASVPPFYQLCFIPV

Sequence of Luciferin 4-monooxygenase (P08659 whole entry): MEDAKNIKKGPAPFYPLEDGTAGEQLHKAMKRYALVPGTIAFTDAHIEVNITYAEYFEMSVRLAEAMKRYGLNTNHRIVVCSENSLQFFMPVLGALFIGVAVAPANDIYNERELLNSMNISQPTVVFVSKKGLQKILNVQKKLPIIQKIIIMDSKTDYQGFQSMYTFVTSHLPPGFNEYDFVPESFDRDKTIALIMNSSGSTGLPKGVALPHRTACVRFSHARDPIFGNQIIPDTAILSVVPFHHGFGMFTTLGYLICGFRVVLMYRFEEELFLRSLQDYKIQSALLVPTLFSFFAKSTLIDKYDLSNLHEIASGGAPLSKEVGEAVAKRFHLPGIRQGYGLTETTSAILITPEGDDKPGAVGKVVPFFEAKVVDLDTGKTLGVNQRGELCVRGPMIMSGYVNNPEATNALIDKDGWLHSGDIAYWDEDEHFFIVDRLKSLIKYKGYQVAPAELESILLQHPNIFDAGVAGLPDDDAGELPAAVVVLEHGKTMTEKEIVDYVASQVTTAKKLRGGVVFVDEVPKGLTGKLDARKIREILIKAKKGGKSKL

For `Cc1cccc(NC(=O)CNC(=O)COC(=O)CCS(=O)(=O)c2ccccc2)c1C`, the EC50 [1] was > 112 µM (not active) and the EC50 [2] was > 112 µM (not active).
With `Cc1cc(C)c(C)c(OCC(O)CN2CCN(c3ccccn3)CC2)c1` (stereo not drawn) the EC50 [1] was > 112 µM (not active) and the EC50 [2] was > 112 µM (not active).
With `O=c1c(-c2ccc(F)cc2)nc2cnc(N3CCOCC3)nc2n1Cc1ccc(F)cc1` the AC50 [3] was 39.8 µM (inconclusive) and the AC50 [4] was 20 µM (inconclusive).
For `O=C(SCc1cccc2ccccc12)c1ccc(Cl)cc1`, the AC50 [4] was 0.794 µM (inconclusive).
With `COc1ccc(OC)c(NC(=O)CC(Cc2ccccc2OC)C(=O)O)c1` (stereo not drawn) the AC50 [4] was 0.0316 µM (inconclusive).
In the case of `COc1cc2c(cc1OC)CN(CCC(=O)c1ccc(Br)cc1)CC2`, the IC50 [5] is reported as 16.5 µM (active).
In the case of `NS(=O)(=O)c1ccc(/N=N\c2nc3c(O)nc(O)nc3[nH]2)cc1`, the AC50 [6] is reported as 0.631 µM (inconclusive).
In the case of `CC1(C)S[C@@H]2[C@H](C(=O)O)N=C(Cc3ccccc3)N2[C@H]1C(=O)O`, the AC50 [4] is reported as 6.31 µM (inconclusive).
For `O=[N+]([O-])c1cc(C(F)(F)F)ccc1NCCNC(=S)Nc1ccc(Cl)cc1`, the EC50 [7] was > 150 µM (not active) and the IC50 [8] was 7.92 µM (not active).
For `CC(C)OC(=O)c1c(NS(=O)(=O)c2ccccc2)sc2c1CCCC2`, the EC50 [9] was 14 µM (active), the EC50 [10] was 3.69 µM (active) and the EC50 [11] was 7.93 µM (active). For the same compound, the EC50 [7] was > 150 µM (not active).
For `O=C(CN1CCN(c2ccccc2)CC1)N1N=CCC1c1ccccc1` (stereo not drawn), the EC50 [1] was > 112 µM (not active) and the EC50 [2] was > 112 µM (not active).
For `CN(C)c1ccc(/C=N/NC(=O)c2ccnn2C)cc1`, the EC50 [1] was 6.24 µM (active) and the EC50 [2] was 1.32 µM (active).
With `Cc1cccc(Oc2ccc(NC(=O)c3ccccc3C(=O)O)cc2)c1C` the EC50 [9] was 8.97 µM (active).
For `Cc1ccc(CNC(=O)c2cc(-c3ccccc3C)nn2CC2CC(c3cccnc3)=NO2)cc1` (stereo not drawn), the AC50 [12] was 29 µM (active) and the AC50 [13] was > 70 µM (inactive).
With `O=C(Nc1cccc(C(F)(F)F)c1)N(Cc1ccc(Cl)cc1)CC(O)C(F)(F)F` (stereo not drawn) the AC50 [6] was 22.4 µM (inconclusive), the EC50 [14] was 23.8 µM (active) and the EC50 [15] was 19.6 µM (active).
For `CC(C)N1CCC(=NNC(=O)c2ccc(Br)o2)CC1`, the AC50 [3] was 10 µM (inconclusive) and the AC50 [4] was 17.8 µM (inconclusive).
With `CC1(C)CO[C@H](CC(=O)O)CN1` the AC50 [16] was 39.8 µM (inconclusive) and the AC50 [4] was 31.6 µM (inconclusive).
For `O=C(NCC1(N2CCCCC2)CCCCC1)c1ccc(NS(=O)(=O)c2ccc(F)cc2)cc1`, the EC50 [1] was > 112 µM (not active) and the EC50 [2] was > 112 µM (not active).
In the case of `N[C@H](C(=O)O)c1cccc(O)c1`, the AC50 [4] is reported as 39.8 µM (inconclusive).
With `Cc1nc2ncnn2c(C)c1CCC(=O)NCCC1=CCCCC1` the AC50 [6] was 15.8 µM (inconclusive) and the AC50 [16] was 14.1 µM (inconclusive).
For `Cc1noc(NS(=O)(=O)c2ccc(NC(=O)c3ccc(Br)o3)cc2)c1C`, the AC50 [6] was 39.8 µM (inconclusive) and the AC50 [16] was 14.1 µM (inconclusive).
